Source: US4791215A, “Derivatives of glutamic acid and aspartic acid” (priority 1984, dated 1988)
Like-named read-outs stand apart in the source and are kept apart here.

Legend:
[1] = tested on: normal pancreatic cells; experiment: Trophic action of CCK-8 on normal pancreas; type: in vivo, hamsters
Excerpt: (§1) The anti-cholecystokinin effect of the most powerful of the compounds which are the subject of the present invention, that is the compound C-7, on the trophic activity of CCK on normal pancreatic cells and on those of a pancreatic adenocarcinoma is to be studied.
(§2) Male hamsters were inoculated in the cheek pouches with a suspension of 1×10^5 tumoral cells of a pancreatic adenocarcinoma. Five days after the inoculation the animals were divided at random into 4 groups of 10 animals each, that is, a control group, a group of animals treated with 10 μg/kg of CCK-8 three times a day, a group of animals treated with 5 mg/kg i.p. of compound C-7 three times a day, and a fourth group treated simultaneously with the compound C-7 and CCK-8 in the manner described above.
(§3) After 15 days of this treatment, the animals were killed, and the normal pancreas and the inoculated pancreatic tumours in the cheek pouches were collected and weighed. The DNA was extracted and measured according to conventional techniques.
(§4) The results thus obtained are given in Table 13, expressed as mean values (±S.E.)

[2] = tested on: pancreatic adenocarcinoma; type: in vivo, hamsters
Excerpt: as §1, §2, §3, §4

[3] = 10 mcg/kg CCK-8 + compound 5 mg/kg, 3 times a day
[4] = compound 5 mg/kg i.p. 3 times per day

SMILES: CCCCCN(CCCCC)C(=O)C(CCC(=O)O)NC(=O)c1ccc(Cl)c(Cl)c1 (stereo not drawn) [Compound C-7]
- Pancreas weight [1, 3]: 374 ± 25.4 mg
- Pancreatic DNA [1, 3]: 1.0 ± 0.08 mg
- Pancreas weight [1, 4]: 336 ± 22.6 mg
- Pancreatic DNA [1, 4]: 0.93 ± 0.09 mg
- TUMORAL DNA [2, 3]: 0.4 ± 0.02 mg
- Weight of Pancreatic Carcinoma [2, 3]: 109.5 ± 6.2 mg
- TUMORAL DNA [2, 4]: 0.42 ± 0.02 mg
- Weight of Pancreatic Carcinoma [2, 4]: 104 ± 7.5 mg
- effect on growth of pancreatic adenocarcinoma / CCK-8 actions ([2]; hamster, in vivo): antagonises both these actions of CCK-8 in a higly significant manner
